Source: article PMC9686516, “Pharmacokinetic Characteristics of Nebulized Colistimethate Sodium Using Two Different Types of Nebulizers in Critically Ill Patients with Ventilator-Associated Respiratory Infections” (Antibiotics, 2022)
Where two headings read alike, the source gives them in different places. Where a SMILES comes first, the peptide text is derived from it. Bridges are numbered along the chain shown (N, C = ends). [ ]: non-standard residue; d: D form. The star is where a group is joined. X1 = CC[C@H](C)CCCCC(=O)*; Dab = NCC[C@H](N)C(=O)O

How the values were obtained:
[1] = Colistin pharmacokinetics in plasma after nebulized CMS in ventilated VARI patients; assay type: in vivo, human; details: for Volume of distribution/ fraction of dose absorbed / Clearance/fraction of dose absorbed / Cmax / AUC0–8 h: NCA; for Volume of distribution/ fraction of dose absorbed: dose/(λ × AUCinf); for Volume of distribution/ fraction of dose absorbed / Clearance/fraction of dose absorbed / Cmax / Cmin / AUC0–8 h / level at 0.5 h / level at 1 h / level at 2 h / level at 4 h / level at 6 h / level at 8 h / Tmax: median (IQR); for Clearance/fraction of dose absorbed: dose/AUCinf; for AUC0–8 h: no systemic CMS, HPLC-fluorescence; for level at 0.5 h / level at 1 h / level at 2 h / level at 4 h / level at 6 h / level at 8 h / Tmax: 2 mIU; for level at 0.5 h: 0.5 h post-nebulization; for level at 0.5 h / level at 1 h / level at 2 h / level at 4 h / level at 6 h / level at 8 h: read-out: Ccolistin, plasma; for level at 1 h: 1 h post-nebulization; for level at 2 h: 2 h post-nebulization; for level at 4 h: 4 h post-nebulization; for level at 6 h: 6 h post-nebulization; for level at 8 h: 8 h post-nebulization
Text: The study population consisted of 24 critically ill adult patients, admitted to the intensive care unit of the First Department of Pulmonology of the National and Kapodistrian University of Athens between June 2014 and November 2017. All patients were intubated and mechanically ventilated, and received inhaled CMS as part of their treatment for VAP or VAT caused by Gram-negative pathogens. Subjects were studied around the first dose of nebulized treatment, which always preceded intravenous treatment, to avoid confounding by colistin (or CMS) reaching the ELF via the systemic circulation. We excluded patients that received a dose different to the institution’s standard of 2 million international units (mIU) (~160 mg) of CMS and patients who were planned to receive intravenous colistin within 8 h of nebulization initiation.
A dose of 2 mIU of CMS (Colistin®, Norma Hellas, Athens, Greece), corresponding to approximately 160 mg CMS or 68 mg colistin-base activity, was nebulized over a 10–30 min period via either VMN (Aeroneb Solo with Aeroneb Pro controller, Aerogen, Galway, Ireland) or generic JN. This was not a randomized trial, and the nebulizer selection was exclusively a matter of availability of VMN consumables in the ICU at the time. The intended dose was dissolved in 4 mL of normal saline 0.9%. The nebulizer was placed at the inspiratory limb of the ventilator circuit, at 15 cm from the Y-piece, and the heat and moisture exchanger was removed. During nebulization, the patients were sedated and ventilated using assist volume controlled mode, with tidal volume set at 8 mL/kg of ideal body weight, a constant squared-wave inspiratory flow, a positive end expiratory pressure (PEEP) of less than or equal to 10 cm H2O, an inspiratory to expiratory time ratio equal to 1, an inspiratory pause of 10%, and a respiratory rate set at 15/min [31].
[…] The specimens were immediately centrifuged (3500× g for 10 min) in a frigid centrifuge (at 4 °C) and supernatants were collected in Eppendorfs and were frozen at −80 °C until analysis.
Colistin concentrations in plasma (Ccolistin,plasma) and epithelial lining fluid (Ccolistin,ELF) were measured through high performance liquid chromatography (HPLC)-fluorescence analysis.
The samples were rapidly centrifuged, and plasma and BAL supernatant were separated and kept frozen (−80 °C) before analysis, as previously described. An HPLC-RF assay was used for colistin concentration measurements in plasma and BAL fluid samples, based on the method of Li et al., as modified by Markou et al. and Ratjen et al.. Briefly, netilmicin was used as the internal standard and the method consisted of a protein precipitation step with trifluoracetic acid (TFA), followed by colistin derivatization with 9-fluorenylmethyl chloroformate on a solid phase extraction C18 cartridge. The eluted fluid was dried under vacuum and the solid residue was reconstituted in mobile phase for subsequent reversed-phase HPLC with fluorescence detection (excitation: 260 nm; emission: 316 nm). The analytical column was a Phenomenex Luna C18, 3 μm, 50 mm × 3 mm with 100 Å particle size, while the mobile phase consisted of ACN/THF/H2O (80/7.7/12.3%) with a flow rate of 0.5 mL/min. The injection volume was 20 μL. The method was linear at a concentration range of 0.10–4.8 mg/L (R^2 = 0.999). The limit of detection (LOD) and lower limit of quantification (LLOQ) were 0.01 and 0.04 mg/L, respectively, while the intra- and inter-assay variabilities were less than 16%. Representative chromatograms and calibration curves in plasma and BAL are given in the Supplementary Material (Figures S1 and S2).
PK analysis was performed on measured serum and ELF concentrations using the Phoenix® version 8.3 PK/PD software package (Certara, Princeton, NJ, USA). […]

[2] = adjunctive aerosolized colistin; meta-analysis of mostly observational data; cited from earlier work
Text: The rationale has been the theoretic ability to achieve sufficient concentration in the infectious milieu of the lung parenchyma while sparing any significant systemic adverse outcome. In contrast to these theoretical considerations, inhaled CMS has only had modest efficacy and in ...

Pseudomonas aeruginosa = details: animal thigh and lung infection models; cited from earlier work
Acinetobacter baumannii = details: animal thigh and lung infection models; cited from earlier work
[3] = human, inhaled or intranasal, JN, n = 6, 2 mIU CMS inhaled
[4] = human, inhaled or intranasal, VMN, n = 18, 2 mIU CMS inhaled

## CC[C@H](C)CCCCC(=O)N[C@@H](CCN)C(=O)N[C@H](C(=O)N[C@@H](CCN)C(=O)N[C@H]1CCNC(=O)[C@H]([C@@H](C)O)NC(=O)[C@H](CCN)NC(=O)[C@H](CCN)NC(=O)[C@H](CC(C)C)NC(=O)[C@@H](CC(C)C)NC(=O)[C@H](CCN)NC1=O)[C@@H](C)O [colistin] (X1-[Dab]T[Dab][Dab][Dab][dL]L[Dab][Dab]T; lactam 4-C)
[1]; 30 min, JN, n = 6, 2 mIU CMS inhaled
  Ccolistin over 2 mg/L, frequency of patients: 0%
[1]; 30 min, VMN, n = 18, 2 mIU CMS inhaled
  Ccolistin over 2 mg/L, frequency of patients: 0%
[1]; 60 min, JN, n = 6, 2 mIU CMS inhaled
  Ccolistin over 2 mg/L, frequency of patients: 16.7%
[1]; 60 min, VMN, n = 18, 2 mIU CMS inhaled
  Ccolistin over 2 mg/L, frequency of patients: 61.1%
[1]; 120 min, JN, n = 6, 2 mIU CMS inhaled
  Ccolistin over 2 mg/L, frequency of patients: 16.7%
[1]; 120 min, VMN, n = 18, 2 mIU CMS inhaled
  Ccolistin over 2 mg/L, frequency of patients: 22.2%
[1]; 240 min, JN, n = 6, 2 mIU CMS inhaled
  Ccolistin over 2 mg/L, frequency of patients: 16.7%
[1]; 240 min, VMN, n = 18, 2 mIU CMS inhaled
  Ccolistin over 2 mg/L, frequency of patients: 5.6%
[1]; 360 min, JN, n = 6, 2 mIU CMS inhaled
  Ccolistin over 2 mg/L, frequency of patients: 0%
[1]; 360 min, VMN, n = 18, 2 mIU CMS inhaled
  Ccolistin over 2 mg/L, frequency of patients: 0%
[1]; 480 min, JN, n = 6, 2 mIU CMS inhaled
  Ccolistin over 2 mg/L, frequency of patients: 0%
[1]; 480 min, VMN, n = 18, 2 mIU CMS inhaled
  Ccolistin over 2 mg/L, frequency of patients: 0%
[1]; JN, n = 6, 2 mIU CMS inhaled
  Volume of distribution/ fraction of dose absorbed: 129.8 (95.6–151.9) L
  Clearance/fraction of dose absorbed: 37.6 (23.2–39.9) L/h
  Cmax: 0.3 (0.3–1.6) mg/L
  Cmin: 0.1 (0.1–0.2) mg/L
  AUC0–8 h: 1.3 (1.3–6.4) mg/L∙h
[1]; JN, n = 6, 2 mIU CMS inhaled, calculated as AUCinf × 3, median (IQR)
  AUC0–24: 4.0 (3.8–19.3) mg/L∙h
[1]; JN, n = 6, 2 mIU CMS inhaled, t1/2 = 0.693/λ, mean (SD), SD
  Mean T1/2 (SD): 2.4 (0.5) h
[1]; VMN, n = 18, 2 mIU CMS inhaled
  Volume of distribution/ fraction of dose absorbed: 22.8 (16.8–33.0) L
  Clearance/fraction of dose absorbed: 7.3 (6.0–9.1) L/h
  Cmax: 2.6 (2.0–3.5) mg/L
  Cmin: 0.2 (0.1–0.3) mg/L
  AUC0–8 h: 7.5 (5.5–8.8) mg/L∙h
[1]; [3]
  level at 0.5 h: 100 ng/mL
  level at 1 h: 100 ng/mL
  level at 2 h: 300 ng/mL
  level at 4 h: 200 ng/mL
  level at 6 h: 100 ng/mL
  level at 8 h: 100 ng/mL
  Tmax: 2.2 h
[1]; [4]
  level at 0.5 h: 600 ng/mL
  level at 1 h: 2300 ng/mL
  level at 2 h: 1700 ng/mL
  level at 4 h: 800 ng/mL
  level at 6 h: 400 ng/mL
  level at 8 h: 200 ng/mL
  Tmax: 1.5 h
[1]; human, inhaled or intranasal, VMN, n = 18, 2 mIU CMS inhaled, t1/2 = 0.693/λ, mean (SD), SD
  half-life: 2.4 h
[2]
  decrease in the odds of infection-related mortality: ~40%
  increase in the odds of clinical cure: approximately 60%
Pseudomonas aeruginosa
  fAUC/MIC predicting 1-log killing: 12.2–22.8
Acinetobacter baumannii
  fAUC/MIC predicting 1-log killing: 7–42
